Laboratory results: PubChem BioAssay AID248 (DTP/NCI, 2004)
Inconclusive results and toxic doses are left out. Rule as the data show it: active = T/C of 150% or more; inactive = T/C below 125%.

Test system: L1210 leukemia ip in BDF1 mice, survival T/C
Test: NCI In Vivo Anticancer Drug Screen. Data for tumor model L1210 Leukemia (intraperitoneal) in B6D2F1 (BDF1) mice
Conditions: endpoint: mean survival time, higher = longer survival
Summary of the method: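 Mice bearing the transplanted tumor received compound or vehicle. Survival of the treated group was divided by that of the vehicle-treated control group to give the ratio.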

[1] = dose: 50.0 mg/kg/injection, schedule: Q01DX009 (ip), vehicle: Klucel (hydroxypropylcellulose) (HPC)
[2] = dose: 100.0 mg/kg/injection, schedule: Q01DX009 (ip), vehicle: Klucel (hydroxypropylcellulose) (HPC)
[3] = dose: 100.0 mg/kg/injection, schedule: Q04DX003 (ip), vehicle: Klucel (hydroxypropylcellulose) (HPC)
[4] = dose: 200.0 mg/kg/injection, schedule: Q04DX003 (ip), vehicle: Klucel (hydroxypropylcellulose) (HPC)
[5] = dose: 100.0 mg/kg/injection, schedule: Q01DX001 (ip), vehicle: Klucel (hydroxypropylcellulose) (HPC)
[6] = dose: 200.0 mg/kg/injection, schedule: Q01DX001 (ip), vehicle: Klucel (hydroxypropylcellulose) (HPC)
[7] = dose: 400.0 mg/kg/injection, schedule: Q04DX003 (ip), vehicle: Klucel (hydroxypropylcellulose) (HPC)
[8] = dose: 100.0 mg/kg/injection, schedule: Q04DX003 (ip), vehicle: saline with Tween-80
[9] = dose: 200.0 mg/kg/injection, schedule: Q04DX003 (ip), vehicle: saline with Tween-80
[10] = dose: 400.0 mg/kg/injection, schedule: Q04DX003 (ip), vehicle: saline with Tween-80
[11] = dose: 100.0 mg/kg/injection, schedule: Q04DX003 (ip), vehicle: saline
[12] = dose: 200.0 mg/kg/injection, schedule: Q04DX003 (ip), vehicle: saline
[13] = dose: 400.0 mg/kg/injection, schedule: Q04DX003 (ip), vehicle: saline

Measured: T/C

C=C[CH2][Sn]([Br])([c]1ccccc1)[c]1ccccc1
inactive: dose: 1.56 mg/kg/injection, schedule: Q01DX009 (ip), vehicle: saline with Tween-80 89 % of control | dose: 3.13 mg/kg/injection, schedule: Q01DX009 (ip), vehicle: saline with Tween-80 92 % of control

Cc1ccc(Cl)cc1NC(=O)c1cccc(C(=O)Nc2cc(Cl)ccc2C)c1
inactive: [1] 91 % of control | [2] 100 % of control | [3] 98 % of control | dose: 200.0 mg/kg/injection, schedule: Q01DX009 (ip), vehicle: Klucel (hydroxypropylcellulose) (HPC) 91 % of control | [4] 88 % of control

COc1ccc2c(c1OC)CCN1C3=C(CC(OC(=O)c4ccccc4)CC3)C(=O)CC21 (stereo not given)
inactive: [5] 96 % of control | dose: 100.0 mg/kg/injection, schedule: Q01DX009 (ip), vehicle: saline sonified 93 % of control | [6] 94 % of control | dose: 200.0 mg/kg/injection, schedule: Q01DX009 (ip), vehicle: saline sonified 95 % of control | dose: 400.0 mg/kg/injection, schedule: Q01DX001 (ip), vehicle: Klucel (hydroxypropylcellulose) (HPC) 97 % of control | dose: 400.0 mg/kg/injection, schedule: Q01DX009 (ip), vehicle: saline sonified 93 % of control

O=C1C=C(c2ccccc2)c2cccc3cccc1c23
inactive: dose: 50.0 mg/kg/injection, schedule: Q01DX001 (ip), vehicle: Klucel (hydroxypropylcellulose) (HPC) 98 % of control | [5] 87 % of control | [6] 92 % of control

O=C1/C(=C/c2ccc(O)c(O)c2)Cc2ccccc21
inactive: [3] 117 % of control | [4] 105 % of control | [7] 104 % of control

CC(C)C[n+]1cc([O-])on1
inactive: dose: 6.25 mg/kg/injection, schedule: Q01DX009 (ip), vehicle: Klucel (hydroxypropylcellulose) (HPC) 97 % of control | dose: 12.5 mg/kg/injection, schedule: Q01DX009 (ip), vehicle: Klucel (hydroxypropylcellulose) (HPC) 100 % of control

C=CCc1c(O)c(OC)cc2c1C(=O)CCCC2
inactive: dose: 50.0 mg/kg/injection, schedule: Q01DX009 (ip), vehicle: saline with Tween-80 93 % of control | dose: 100.0 mg/kg/injection, schedule: Q01DX009 (ip), vehicle: saline with Tween-80 93 % of control | dose: 200.0 mg/kg/injection, schedule: Q01DX009 (ip), vehicle: saline with Tween-80 93 % of control

CCC(=O)c1ccc2ccccc2c1
inactive: [3] 100 % of control | [4] 104 % of control | [7] 100 % of control

CC(=O)Nc1ccc(-c2ccc(C)cc2)cc1
inactive: [8] 104 % of control | [9] 106 % of control | [10] 95 % of control

O=c1[nH]c(=O)n(C2CCCCO2)cc1F (stereo not given)
inactive: dose: 2.5 mg/kg/injection, schedule: Q01DX009 (ip), vehicle: saline 100 % of control | dose: 5.0 mg/kg/injection, schedule: Q01DX009 (ip), vehicle: saline 104 % of control | dose: 10.0 mg/kg/injection, schedule: Q01DX009 (ip), vehicle: saline 94 % of control | dose: 20.0 mg/kg/injection, schedule: Q01DX009 (ip), vehicle: saline 96 % of control | dose: 40.0 mg/kg/injection, schedule: Q01DX009 (ip), vehicle: saline 100 % of control | dose: 80.0 mg/kg/injection, schedule: Q01DX009 (ip), vehicle: saline 96 % of control | dose: 160.0 mg/kg/injection, schedule: Q01DX009 (ip), vehicle: saline 98 % of control

C#CCOCCC(C(=O)O)C(=O)O
inactive: dose: 100.0 mg/kg/injection, schedule: Q01DX009 (ip), vehicle: acetone 90 % of control | dose: 100.0 mg/kg/injection, schedule: Q04DX003 (ip), vehicle: acetone 101 % of control | dose: 200.0 mg/kg/injection, schedule: Q01DX009 (ip), vehicle: acetone 97 % of control | dose: 200.0 mg/kg/injection, schedule: Q04DX003 (ip), vehicle: acetone 101 % of control | dose: 400.0 mg/kg/injection, schedule: Q04DX003 (ip), vehicle: acetone 92 % of control

O=C(c1ccc(C(=O)N(C2CCCCC2)C2CCCCC2)cc1)N(C1CCCCC1)C1CCCCC1
inactive: dose: 5.0 mg/kg/injection, schedule: Q01DX001 (ip), vehicle: saline 105 % of control | dose: 10.0 mg/kg/injection, schedule: Q01DX001 (ip), vehicle: saline 109 % of control | dose: 20.0 mg/kg/injection, schedule: Q01DX001 (ip), vehicle: saline 103 % of control | dose: 40.0 mg/kg/injection, schedule: Q01DX001 (ip), vehicle: saline 101 % of control | dose: 80.0 mg/kg/injection, schedule: Q01DX001 (ip), vehicle: saline 100 % of control

O=Cc1c(Cl)n(C(=O)c2ccccc2Cl)c2ccccc12
inactive: dose: 100.0 mg/kg/injection, schedule: Q04DX002 (ip), vehicle: Klucel (hydroxypropylcellulose) (HPC) 97 % of control | dose: 200.0 mg/kg/injection, schedule: Q04DX002 (ip), vehicle: Klucel (hydroxypropylcellulose) (HPC) 86 % of control

Nc1cccc2c1nc(NCCO)c1ccccc12
inactive: [3] 114 % of control | [4] 103 % of control | [7] 103 % of control

CCOC(OC(C)=O)OC(C)=O
inactive: [11] 87 % of control | [12] 101 % of control | [13] 97 % of control

CCN(CC)CCCNC(=S)NC(C)(C)CC(C)=O
inactive: [1] 89 % of control | [2] 105 % of control | [11] 97 % of control | [12] 101 % of control | [13] 100 % of control

Nc1n[nH]c2cc(=O)[nH]c(O)c12
inactive: dose: 75.0 mg/kg/injection, schedule: Q01DX001 (ip), vehicle: saline 98 % of control | dose: 150.0 mg/kg/injection, schedule: Q01DX001 (ip), vehicle: saline 93 % of control | dose: 300.0 mg/kg/injection, schedule: Q01DX001 (ip), vehicle: saline 94 % of control

CC(=O)c1cc(F)ccc1O
inactive: [8] 102 % of control | [9] 97 % of control | [10] 94 % of control

CNC(=O)NCc1ccc(Cl)cc1
inactive: [8] 105 % of control | [9] 98 % of control | [10] 107 % of control

CCC(=O)OC(CC=C(C)C)(c1ccccc1)C(C)CN(C)C (stereo not given)
inactive: dose: 100.0 mg/kg/injection, schedule: Q01DX009 (ip), vehicle: saline 100 % of control
